EP0276583A1, “Imidazole derivatives, processes for their preparation and their fungicidal properties” (Instituto de Investigacion Y Desarrollo Quimico Biologico …, priority 1987, dated 1988)

What was measured:
souris Swiss = assay: Acute oral toxicity in mice (Lichfield and Wilcoxon method); type: in vivo; conditions: mortality over 7 days
Source text: La toxicité aiguë des composés de l'invention a été déterminée par voie orale chez les souris Swiss des deux sexes, par la méthode de Lichfield et Wilcoxon. Des groupes de cinq souris de chaque sexe ont été traités par des doses croissantes du composé étudié et le taux de mortalité a été déterminé au cours des 7 jours suivant l'administration du produit.
On a trouvé les doses léthales (DL₅₀ en mg/kg) suivantes : […]

[1] = Solubility of the product in solvents; type: physicochemical; conditions: free base (oily product)
[2] = in benzène, éthanol, acétone, chloroforme
[3] = in eau, n-hexane, éther isopropylique, éther éthylique

Row | Compound | DL₅₀ (souris Swiss; souris femelle) | DL₅₀ (souris Swiss; souris mâle) | solubilité [1, 2] | solubilité [1, 3]
1 | Brc1ccc(C(Cn2ccnc2)c2ccccc2)cc1 (centres unmarked) [Exemple 1, 1-[2-(4-bromophényl)-2-phényléthyl]-1H-imidazole] | 375 (350-400) mg/kg | 450 (400-475) mg/kg | soluble | insoluble
2 | Fc1ccc(C(Cn2ccnc2)c2ccccc2)cc1 (centres unmarked) [Exemple 2, 1-[2-(4-fluorophényl)-2-phényl éthyl]-1H-imidazole] | 465 (438-502) mg/kg | 524 (457-538) mg/kg | soluble | insoluble
